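The compound was tested at five concentrations on cells cultured in 96-well plates, with a 48-hour exposure period. Abbreviation: GI50, concentration required for 50% inhibition of growth. TGI is the concentration that stops growth completely.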
How the values were obtained:
Test in all cases: growth of human tumour cells (NCI), 48 h
SK-MEL-2 melanoma = tested on: SK-MEL-2 melanoma
NCI-H23 lung = tested on: NCI-H23 lung
K-562 leukemia = tested on: K-562 leukemia
NCI-H226 lung = tested on: NCI-H226 lung
IGROV1 ovarian = tested on: IGROV1 ovarian
NCI-H460 lung = tested on: NCI-H460 lung
OVCAR-8 ovarian = tested on: OVCAR-8 ovarian
UO-31 renal = tested on: UO-31 renal
SK-OV-3 ovarian = tested on: SK-OV-3 ovarian
PC-3 prostate = tested on: PC-3 prostate
ACHN renal = tested on: ACHN renal
SNB-75 CNS = tested on: SNB-75 CNS
TK-10 renal = tested on: TK-10 renal
SF-539 CNS = tested on: SF-539 CNS
U251 CNS = tested on: U251 CNS
T-47D breast = tested on: T-47D breast
SN12C renal = tested on: SN12C renal
LOX IMVI melanoma = tested on: LOX IMVI melanoma
SK-MEL-28 melanoma = tested on: SK-MEL-28 melanoma
HOP-62 NSCLC = tested on: HOP-62 NSCLC
HCT-116 colon = tested on: HCT-116 colon
UACC-257 melanoma = tested on: UACC-257 melanoma
HOP-92 NSCLC = tested on: HOP-92 NSCLC
MDA-MB-435 = tested on: MDA-MB-435
OVCAR-4 ovarian = tested on: OVCAR-4 ovarian
NCI-H522 lung = tested on: NCI-H522 lung
EKVX NSCLC = tested on: EKVX NSCLC
DU-145 prostate = tested on: DU-145 prostate
A498 renal = tested on: A498 renal
M14 melanoma = tested on: M14 melanoma
A549 NSCLC = tested on: A549 NSCLC
SW-620 colon = tested on: SW-620 colon
BT-549 breast = tested on: BT-549 breast
HT29 colon = tested on: HT29 colon
CCRF-CEM leukemia = tested on: CCRF-CEM leukemia
OVCAR-3 ovarian = tested on: OVCAR-3 ovarian
SF-268 CNS = tested on: SF-268 CNS
KM12 colon = tested on: KM12 colon
SK-MEL-5 melanoma = tested on: SK-MEL-5 melanoma
786-0 renal = tested on: 786-0 renal
UACC-62 melanoma = tested on: UACC-62 melanoma
RXF 393 renal = tested on: RXF 393 renal

Compound: C=CCN1C(=O)c2cccc3c(N4CCOCC4)ccc(c23)C1=O
- GI50 (SK-MEL-2 melanoma): 146 nM
- TGI (SK-MEL-2 melanoma): 675 nM
- GI50 (NCI-H23 lung): 126 nM
- TGI (NCI-H23 lung): > 100000 nM
- GI50 (K-562 leukemia): 202 nM
- TGI (K-562 leukemia): > 100000 nM
- GI50 (NCI-H226 lung): 167 nM
- TGI (NCI-H226 lung): 1750 nM
- GI50 (IGROV1 ovarian): 11.4 nM
- TGI (IGROV1 ovarian): 91.5 nM
- GI50 (NCI-H460 lung): 272 nM
- TGI (NCI-H460 lung): 12700 nM
- GI50 (OVCAR-8 ovarian): 229 nM
- TGI (OVCAR-8 ovarian): > 100000 nM
- GI50 (UO-31 renal): 13.4 nM
- TGI (UO-31 renal): 322 nM
- GI50 (SK-OV-3 ovarian): 49.8 nM
- TGI (SK-OV-3 ovarian): 667 nM
- GI50 (PC-3 prostate): 128 nM
- TGI (PC-3 prostate): 748 nM
- GI50 (ACHN renal): 113 nM
- TGI (ACHN renal): > 100000 nM
- TGI (SNB-75 CNS): 40600 nM
- GI50 (TK-10 renal): 62.3 nM
- TGI (TK-10 renal): 791 nM
- GI50 (SF-539 CNS): 29.3 nM
- TGI (SF-539 CNS): 376 nM
- GI50 (U251 CNS): 59.2 nM
- TGI (U251 CNS): 606 nM
- GI50 (T-47D breast): 14.8 nM
- TGI (T-47D breast): 11500 nM
- GI50 (SN12C renal): 79.6 nM
- TGI (SN12C renal): > 100000 nM
- GI50 (LOX IMVI melanoma): 23 nM
- TGI (LOX IMVI melanoma): 159 nM
- GI50 (SK-MEL-28 melanoma): 25.4 nM
- TGI (SK-MEL-28 melanoma): 492 nM
- GI50 (HOP-62 NSCLC): 101 nM
- TGI (HOP-62 NSCLC): > 100000 nM
- GI50 (HCT-116 colon): 96.1 nM
- TGI (HCT-116 colon): 428 nM
- GI50 (UACC-257 melanoma): 68.5 nM
- TGI (UACC-257 melanoma): 642 nM
- TGI (HOP-92 NSCLC): 41.6 nM
- GI50 (MDA-MB-435): 65.9 nM
- TGI (MDA-MB-435): 22200 nM
- GI50 (OVCAR-4 ovarian): 310 nM
- TGI (OVCAR-4 ovarian): > 100000 nM
- GI50 (NCI-H522 lung): 206 nM
- TGI (NCI-H522 lung): 12300 nM
- GI50 (EKVX NSCLC): 40.5 nM
- TGI (EKVX NSCLC): 979 nM
- GI50 (DU-145 prostate): 63.8 nM
- TGI (DU-145 prostate): 13600 nM
- GI50 (A498 renal): 13.8 nM
- TGI (A498 renal): 42.1 nM
- GI50 (M14 melanoma): 42.9 nM
- TGI (M14 melanoma): > 100000 nM
- GI50 (A549 NSCLC): 102 nM
- TGI (A549 NSCLC): 595 nM
- GI50 (SW-620 colon): 249 nM
- TGI (SW-620 colon): 12500 nM
- GI50 (BT-549 breast): 23.4 nM
- TGI (BT-549 breast): 294 nM
- GI50 (HT29 colon): 65 nM
- TGI (HT29 colon): 11100 nM
- GI50 (CCRF-CEM leukemia): 45.2 nM
- TGI (CCRF-CEM leukemia): > 100000 nM
- GI50 (OVCAR-3 ovarian): 11.8 nM
- TGI (OVCAR-3 ovarian): 142 nM
- GI50 (SF-268 CNS): 104 nM
- TGI (SF-268 CNS): 548 nM
- GI50 (KM12 colon): 131 nM
- TGI (KM12 colon): 60900 nM
- GI50 (SK-MEL-5 melanoma): 27.4 nM
- TGI (SK-MEL-5 melanoma): 127 nM
- GI50 (786-0 renal): 263 nM
- TGI (786-0 renal): 32700 nM
- GI50 (UACC-62 melanoma): 188 nM
- TGI (UACC-62 melanoma): 613 nM
- GI50 (RXF 393 renal): 16.2 nM
- TGI (RXF 393 renal): 128 nM
